{"source": "patent US20190343908A1", "about": "“Therapeutic Combination for the Treatment of Cancer” (Nerium Biotechnology Inc., priority 2011, published 2019)", "key": {"[1]": {"system": "PC3 (human prostate cancer)", "assay": "Methyl-Tetrazolium viability assay, PC3", "format": "cell-based", "design": "key: absorbance at 570 nm (optical density)", "from_the_text": "The Methyl-Tetrazolium dye assay measures the activity of enzymes in mitochondria. The dye precursor is taken up by cells, where it undergoes reduction to the purple formazan. It measures only the mitochondrial activity and, thus, it is not always a reliable indication of whether the cells themselves are alive or dead, since even a recently dead cell has […] enzyme activity in mitochondria. Intracellular glucose concentration, pH, and time before assay all affect the measurements.\n(§1) The Methyl Tetrazolium, Sulforhodamine B, and Crystal Violet assays were used to assess cell viabilities. The incubation times were 24 hours, 48 hours, and 72 hours. The Nerium oleander extract Anvirzel™ (a hot water extract of oleander obtained from Salud Integral, Honduras) was tested in concentrations ranging from 0.01 ng/mL to 10 ng/mL.\n(§2) Cells were detached by trypsinization (Trypsin-0.25% EDTA, Invitrogen, 25200-072) during the logarithmic phase of culture growth and plated in 96-well plates (18.000 cells/well) (Corning, Costar 359) in a final volume of 200 μl of medium per well. […] The absorbance was measured after 24 hours, 48 hours, and 72 hours of incubation.\nFor the Methyl-Tetrazolium assay, the dye (Sigma, M2128; 5 mg/mL, diluted in phosphate-buffered saline) was added to each well and plates were incubated for 3 hours at 37° C. After the end of the incubation period, the medium was discarded and the cells were rinsed with phosphate-buffered saline. Finally, the formazan crystals were dissolved in dimethylsulphoxide (Sigma, D4540).\n(§3) The optical density of each plate was measured on a μQuant spectrophotometer and the data were analyzed with Gen5 software (μQuant Biomolecular Spectrophotometer MQX200 and Gen5™ Microplate Data Collection & Analysis software, BioTek® Instruments. Inc, April 2008). Absorbance was measured at 570 nm for all assays and a second wavelength was measured in order to subtract noise. For the Methyl-Tetrazolium assay this second wavelength was 630 nm and for the Sulforhodamine B and Crystal Violet assays it was 690 nm."}, "[2]": {"system": "HCT-116 (colorectal cancer)", "assay": "Crystal Violet viability assay, HCT-116", "format": "cell-based, human", "design": "key: absorbance at 570 nm (crystal violet), background wavelength subtracted", "conditions": "for Average CVE: HCT-116", "from_the_text": "Three different viability assays were chosen to complement each other and yielded results dependent on concentration and cell line: the Methyl Tetrazolium dye assay, the Sulforhodamine B fluorescent dye assay, and the Crystal Violet dye assay.\nThe Sulforhodamine B and Crystal Violet assays provide information about protein and were used to complement the Methyl-Tetrazolium dye assay. […] It is used for the quantification of cellular proteins of cultured cells. The assay using Crystal Violet, a dye that binds electrostatically to proteins and stains DNA, provides a reliable, simple assay for measuring viability of cells.\nas §1, §2\nFor the Crystal Violet assay, the medium was removed from the 96-well plates, the plates rinsed with PBS (Sigma, P3813) and then the cells were […] by the addition of 10% formalin (MERCK, 1.04003.2500) for 20 minutes at RT. Formalin was removed and 0.25% aqueous crystal violet (Sigma, HT901), dissolved in water, was added for 10 minutes at RT. Unbound Crystal Violet was rinsed by washing with water and finally 33% acetic acid was added to dissolve the dye.\nas §3"}}, "data": [{"smiles": "N.N.[Cl][Pt][Cl]", "note": "[cisplatin]", "values": [{"measurement": "MTT Average", "setting": "[1]; PC3 Run 1, 24 h, 0.1 μg/ml CDDP", "value": 0.137}, {"measurement": "MTT Average", "setting": "[1]; PC3 Run 1, 24 h, 1 μg/ml CDDP", "value": 0.049}, {"measurement": "MTT Average", "setting": "[1]; PC3 Run 1, 24 h, 10 μg/ml CDDP", "value": 0.091}, {"measurement": "MTT Average", "setting": "[1]; PC3 Run 1, 24 h, 100 μg/ml CDDP", "value": 0.053}, {"measurement": "MTT Average", "setting": "[1]; PC3 Run 1, 48 h, 0.1 μg/ml CDDP", "value": 0.162}, {"measurement": "MTT Average", "setting": "[1]; PC3 Run 1, 48 h, 1 μg/ml CDDP", "value": 0.027}, {"measurement": "MTT Average", "setting": "[1]; PC3 Run 1, 48 h, 10 μg/ml CDDP", "value": 0.064}, {"measurement": "MTT Average", "setting": "[1]; PC3 Run 1, 48 h, 100 μg/ml CDDP", "value": 0.029}, {"measurement": "MTT Average", "setting": "[1]; PC3 Run 1, 72 h, 0.1 μg/ml CDDP", "value": 0.188}, {"measurement": "MTT Average", "setting": "[1]; PC3 Run 1, 72 h, 1 μg/ml CDDP", "value": 0.034}, {"measurement": "MTT Average", "setting": "[1]; PC3 Run 1, 72 h, 10 μg/ml CDDP", "value": 0.044}, {"measurement": "MTT Average", "setting": "[1]; PC3 Run 1, 72 h, 100 μg/ml CDDP", "value": 0.029}, {"measurement": "MTT Average", "setting": "[1]; PC3 Run 2, 24 h, 0.1 μg/ml CDDP", "value": 0.072}, {"measurement": "MTT Average", "setting": "[1]; PC3 Run 2, 24 h, 1 μg/ml CDDP", "value": 0.04}, {"measurement": "MTT Average", "setting": "[1]; PC3 Run 2, 24 h, 10 μg/ml CDDP", "value": 0.079}, {"measurement": "MTT Average", "setting": "[1]; PC3 Run 2, 24 h, 100 μg/ml CDDP", "value": 0.052}, {"measurement": "MTT Average", "setting": "[1]; PC3 Run 2, 48 h, 0.1 μg/ml CDDP", "value": 0.195}, {"measurement": "MTT Average", "setting": "[1]; PC3 Run 2, 48 h, 1 μg/ml CDDP", "value": 0.051}, {"measurement": "MTT Average", "setting": "[1]; PC3 Run 2, 48 h, 10 μg/ml CDDP", "value": 0.074}, {"measurement": "MTT Average", "setting": "[1]; PC3 Run 2, 48 h, 100 μg/ml CDDP", "value": 0.047}, {"measurement": "MTT Average", "setting": "[1]; PC3 Run 2, 72 h, 0.1 μg/ml CDDP", "value": 0.223}, {"measurement": "MTT Average", "setting": "[1]; PC3 Run 2, 72 h, 1 μg/ml CDDP", "value": 0.039}, {"measurement": "MTT Average", "setting": "[1]; PC3 Run 2, 72 h, 10 μg/ml CDDP", "value": 0.068}, {"measurement": "MTT Average", "setting": "[1]; PC3 Run 2, 72 h, 100 μg/ml CDDP", "value": 0.037}, {"measurement": "MTT Average", "setting": "[1]; PC3 Run 3, 24 h, 0.1 μg/ml CDDP", "value": 0.088}, {"measurement": "MTT Average", "setting": "[1]; PC3 Run 3, 24 h, 1 μg/ml CDDP", "value": 0.041}, {"measurement": "MTT Average", "setting": "[1]; PC3 Run 3, 24 h, 10 μg/ml CDDP", "value": 0.096}, {"measurement": "MTT Average", "setting": "[1]; PC3 Run 3, 24 h, 100 μg/ml CDDP", "value": 0.053}, {"measurement": "MTT Average", "setting": "[1]; PC3 Run 3, 48 h, 1 μg/ml CDDP", "value": 0.033}, {"measurement": "MTT Average", "setting": "[1]; PC3 Run 3, 48 h, 10 μg/ml CDDP", "value": 0.062}, {"measurement": "MTT Average", "setting": "[1]; PC3 Run 3, 48 h, 100 μg/ml CDDP", "value": 0.03}, {"measurement": "MTT Average", "setting": "[1]; PC3 Run 3, 72 h, 0.1 μg/ml CDDP", "value": 0.151}, {"measurement": "MTT Average", "setting": "[1]; PC3 Run 3, 72 h, 1 μg/ml CDDP", "value": 0.027}, {"measurement": "MTT Average", "setting": "[1]; PC3 Run 3, 72 h, 10 μg/ml CDDP", "value": 0.057}, {"measurement": "MTT Average", "setting": "[1]; PC3 Run 3, 72 h, 100 μg/ml CDDP", "value": 0.028}, {"measurement": "CVE Average", "setting": "[2]; HCT-116, Run 3, 24 h, 0.1 μg/ml CDDP", "value": 0.371}, {"measurement": "CVE Average", "setting": "[2]; HCT-116, Run 3, 24 h, 1 μg/ml CDDP", "value": 0.267}, {"measurement": "CVE Average", "setting": "[2]; HCT-116, Run 3, 24 h, 10 μg/ml CDDP", "value": 0.393}, {"measurement": "CVE Average", "setting": "[2]; HCT-116, Run 3, 24 h, 100 μg/ml CDDP", "value": 0.256}, {"measurement": "CVE Average", "setting": "[2]; HCT-116, Run 3, 48 h, 0.1 μg/ml CDDP", "value": 1.153}, {"measurement": "CVE Average", "setting": "[2]; HCT-116, Run 3, 48 h, 1 μg/ml CDDP", "value": 0.687}, {"measurement": "CVE Average", "setting": "[2]; HCT-116, Run 3, 48 h, 10 μg/ml CDDP", "value": 0.993}, {"measurement": "CVE Average", "setting": "[2]; HCT-116, Run 3, 48 h, 100 μg/ml CDDP", "value": 0.359}, {"measurement": "CVE Average", "setting": "[2]; HCT-116, Run 3, 72 h, 0.1 μg/ml CDDP", "value": 1.078}, {"measurement": "CVE Average", "setting": "[2]; HCT-116, Run 3, 72 h, 1 μg/ml CDDP", "value": 0.235}, {"measurement": "CVE Average", "setting": "[2]; HCT-116, Run 3, 72 h, 10 μg/ml CDDP", "value": 0.476}, {"measurement": "CVE Average", "setting": "[2]; HCT-116, Run 3, 72 h, 100 μg/ml CDDP", "value": 0.214}, {"measurement": "Average CVE", "setting": "[2]; Run 1, 24 h, 0.1 μg/ml CDDP", "value": 0.569}, {"measurement": "Average CVE", "setting": "[2]; Run 1, 24 h, 1 μg/ml CDDP", "value": 0.563}, {"measurement": "Average CVE", "setting": "[2]; Run 1, 24 h, 10 μg/ml CDDP", "value": 1.173}, {"measurement": "Average CVE", "setting": "[2]; Run 1, 24 h, 100 μg/ml CDDP", "value": 0.344}, {"measurement": "Average CVE", "setting": "[2]; Run 1, 48 h, 0.1 μg/ml CDDP", "value": 0.984}, {"measurement": "Average CVE", "setting": "[2]; Run 1, 48 h, 1 μg/ml CDDP", "value": 0.624}, {"measurement": "Average CVE", "setting": "[2]; Run 1, 48 h, 10 μg/ml CDDP", "value": 0.488}, {"measurement": "Average CVE", "setting": "[2]; Run 1, 48 h, 100 μg/ml CDDP", "value": 0.356}, {"measurement": "Average CVE", "setting": "[2]; Run 1, 72 h, 0.1 μg/ml CDDP", "value": 1.352}, {"measurement": "Average CVE", "setting": "[2]; Run 1, 72 h, 1 μg/ml CDDP", "value": 0.308}, {"measurement": "Average CVE", "setting": "[2]; Run 1, 72 h, 10 μg/ml CDDP", "value": 0.501}, {"measurement": "Average CVE", "setting": "[2]; Run 1, 72 h, 100 μg/ml CDDP", "value": 0.51}, {"measurement": "Average CVE", "setting": "[2]; Run 2, 24 h, 0.1 μg/ml CDDP", "value": 0.52}, {"measurement": "Average CVE", "setting": "[2]; Run 2, 24 h, 1 μg/ml CDDP", "value": 0.302}, {"measurement": "Average CVE", "setting": "[2]; Run 2, 24 h, 10 μg/ml CDDP", "value": 0.477}, {"measurement": "Average CVE", "setting": "[2]; Run 2, 24 h, 100 μg/ml CDDP", "value": 0.303}, {"measurement": "Average CVE", "setting": "[2]; Run 2, 48 h, 0.1 μg/ml CDDP", "value": 0.971}, {"measurement": "Average CVE", "setting": "[2]; Run 2, 48 h, 1 μg/ml CDDP", "value": 0.425}, {"measurement": "Average CVE", "setting": "[2]; Run 2, 48 h, 10 μg/ml CDDP", "value": 0.608}, {"measurement": "Average CVE", "setting": "[2]; Run 2, 48 h, 100 μg/ml CDDP", "value": 0.529}, {"measurement": "Average CVE", "setting": "[2]; Run 2, 72 h, 0.1 μg/ml CDDP", "value": 1.187}, {"measurement": "Average CVE", "setting": "[2]; Run 2, 72 h, 1 μg/ml CDDP", "value": 0.551}, {"measurement": "Average CVE", "setting": "[2]; Run 2, 72 h, 10 μg/ml CDDP", "value": 0.435}, {"measurement": "Average CVE", "setting": "[2]; Run 2, 72 h, 100 μg/ml CDDP", "value": 0.492}]}]}
